# Data taken from patent US9981975B2, “Pyrrolotriazine compounds as tam inhibitors” (Incyte Corporation, priority 2016, dated 2018).
# What was measured:
# Format in all cases: biochemical
# [1] = target: phosphor-Axl (Homo sapiens (Human), UniProt P30530); assay: TAM Enzymatic Assay (HTRF), Axl; conditions: recombinant autophosphorylated Axl, 60 min, room temperature
# [2] = target: c-Mer (Homo sapiens (Human), UniProt Q12866); assay: TAM Enzymatic Assay (HTRF), Mer; conditions: 60 min, room temperature
# In short: (§1)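 Reactions ran 60 min at room temperature, protected from light, started by substrate addition to enzyme plus DMSO compound, in pH 7.5 HEPES buffer with 10 mM MgCl2, 1 mM EGTA, 0.01% NP-40, 2 mM DTT.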
# [3] = target: Tyro3 (Homo sapiens (Human), UniProt Q06418); assay: TAM Enzymatic Assay (HTRF), Tyro3; conditions: Tyro3, 60 min, room temperature
# In short: as §1
# phosphor-Axl, sequence (P30530 26-894): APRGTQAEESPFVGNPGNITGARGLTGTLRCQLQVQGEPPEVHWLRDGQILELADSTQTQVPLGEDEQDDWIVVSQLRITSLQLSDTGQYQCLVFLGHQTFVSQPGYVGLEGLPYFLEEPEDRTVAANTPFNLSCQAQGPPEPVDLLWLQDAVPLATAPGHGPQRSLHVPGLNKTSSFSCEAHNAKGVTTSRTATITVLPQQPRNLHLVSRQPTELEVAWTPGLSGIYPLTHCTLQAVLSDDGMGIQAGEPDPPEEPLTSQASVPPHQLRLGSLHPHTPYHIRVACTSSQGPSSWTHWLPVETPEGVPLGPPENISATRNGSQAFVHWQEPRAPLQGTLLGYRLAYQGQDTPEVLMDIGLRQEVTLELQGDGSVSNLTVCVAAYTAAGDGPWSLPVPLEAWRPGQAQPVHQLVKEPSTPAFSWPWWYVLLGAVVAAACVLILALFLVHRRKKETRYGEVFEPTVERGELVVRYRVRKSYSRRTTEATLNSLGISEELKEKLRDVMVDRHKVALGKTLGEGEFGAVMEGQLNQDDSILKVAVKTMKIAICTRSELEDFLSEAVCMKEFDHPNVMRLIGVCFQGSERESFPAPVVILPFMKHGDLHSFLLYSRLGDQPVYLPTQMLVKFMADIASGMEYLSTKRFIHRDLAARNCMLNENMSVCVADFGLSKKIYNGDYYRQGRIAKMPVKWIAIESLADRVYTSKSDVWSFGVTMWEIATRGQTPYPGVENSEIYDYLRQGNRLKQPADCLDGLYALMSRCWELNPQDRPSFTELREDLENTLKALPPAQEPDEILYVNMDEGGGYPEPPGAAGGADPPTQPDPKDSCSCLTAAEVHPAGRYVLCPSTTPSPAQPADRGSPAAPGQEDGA
# Tyro3, sequence (Q06418 41-890): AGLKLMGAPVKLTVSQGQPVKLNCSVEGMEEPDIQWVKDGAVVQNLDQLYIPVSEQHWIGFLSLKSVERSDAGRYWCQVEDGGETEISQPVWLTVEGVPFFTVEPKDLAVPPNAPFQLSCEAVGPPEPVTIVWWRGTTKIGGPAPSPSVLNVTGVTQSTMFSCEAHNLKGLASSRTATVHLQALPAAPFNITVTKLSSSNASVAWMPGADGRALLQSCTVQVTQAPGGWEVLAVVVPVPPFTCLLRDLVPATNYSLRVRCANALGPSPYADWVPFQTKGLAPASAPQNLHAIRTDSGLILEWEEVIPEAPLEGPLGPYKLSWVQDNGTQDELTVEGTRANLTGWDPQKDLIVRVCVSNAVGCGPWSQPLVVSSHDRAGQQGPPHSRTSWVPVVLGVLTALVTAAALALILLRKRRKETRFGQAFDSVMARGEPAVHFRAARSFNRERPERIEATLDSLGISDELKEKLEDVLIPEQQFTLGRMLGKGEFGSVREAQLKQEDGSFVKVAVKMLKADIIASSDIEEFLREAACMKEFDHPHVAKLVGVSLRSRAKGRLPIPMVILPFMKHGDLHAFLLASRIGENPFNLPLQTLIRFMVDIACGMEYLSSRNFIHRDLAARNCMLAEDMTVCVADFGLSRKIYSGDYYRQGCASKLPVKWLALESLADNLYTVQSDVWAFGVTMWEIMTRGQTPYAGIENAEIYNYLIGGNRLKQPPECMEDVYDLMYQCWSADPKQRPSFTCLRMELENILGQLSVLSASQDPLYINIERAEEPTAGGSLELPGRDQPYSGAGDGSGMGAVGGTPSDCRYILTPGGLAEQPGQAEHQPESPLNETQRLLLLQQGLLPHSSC
# c-Mer, sequence (Q12866 21-999): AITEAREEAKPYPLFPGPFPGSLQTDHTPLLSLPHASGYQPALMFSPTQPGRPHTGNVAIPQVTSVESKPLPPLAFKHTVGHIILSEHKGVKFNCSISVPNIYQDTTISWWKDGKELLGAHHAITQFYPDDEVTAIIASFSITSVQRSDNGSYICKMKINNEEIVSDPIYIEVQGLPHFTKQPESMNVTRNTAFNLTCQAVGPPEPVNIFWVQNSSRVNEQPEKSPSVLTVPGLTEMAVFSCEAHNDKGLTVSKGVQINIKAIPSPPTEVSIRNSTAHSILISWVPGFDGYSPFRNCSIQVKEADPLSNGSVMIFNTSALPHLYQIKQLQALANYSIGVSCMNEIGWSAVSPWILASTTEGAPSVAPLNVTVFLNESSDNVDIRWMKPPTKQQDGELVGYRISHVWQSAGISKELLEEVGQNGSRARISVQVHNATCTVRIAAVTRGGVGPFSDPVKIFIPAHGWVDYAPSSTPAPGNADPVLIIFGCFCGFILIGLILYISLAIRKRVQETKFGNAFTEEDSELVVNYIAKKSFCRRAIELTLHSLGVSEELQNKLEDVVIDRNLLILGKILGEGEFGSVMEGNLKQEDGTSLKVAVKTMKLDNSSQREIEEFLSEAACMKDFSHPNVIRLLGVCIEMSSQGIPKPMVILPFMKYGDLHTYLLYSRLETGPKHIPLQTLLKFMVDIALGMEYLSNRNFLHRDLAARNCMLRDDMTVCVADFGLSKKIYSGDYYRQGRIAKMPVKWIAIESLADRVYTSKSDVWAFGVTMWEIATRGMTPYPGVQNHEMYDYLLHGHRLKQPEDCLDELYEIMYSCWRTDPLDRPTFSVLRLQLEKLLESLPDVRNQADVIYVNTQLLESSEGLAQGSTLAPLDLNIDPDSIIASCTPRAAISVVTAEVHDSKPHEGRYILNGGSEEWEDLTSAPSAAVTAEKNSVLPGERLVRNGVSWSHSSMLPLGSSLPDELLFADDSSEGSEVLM
SMILES,IC50 [1] [µM],IC50 [2] [µM],IC50 [3] [µM]
"COCCN1CCC(c2cc(-c3ccc(NC(=O)c4cccn(-c5ccc(F)cc5)c4=O)cc3)c3c(N)ncnn23)CC1 [Example 49, N-(4-{4-Amino-7-[1-(2-methoxyethyl)piperidin-4-yl]pyrrolo[2,1-f][1,2,4]triazin-5-yl}phenyl)-1-(4-fluorophenyl)-2-oxo-1,2-dihydropyridine-3-carboxamide]",≤ 0.005,≤ 0.005,0.01 to 0.1
"CC(=O)N1CCC(c2cc(-c3ccc(NC(=O)c4cccn(-c5ccc(F)cc5)c4=O)cc3)c3c(N)ncnn23)CC1 [Example 25, N-{4-[7-(1-Acetylpiperidin-4-yl)-4-aminopyrrolo[2,1-f][1,2,4]triazin-5-yl]phenyl}-1-(4-fluorophenyl)-2-oxo-1,2-dihydropyridine-3-carboxamide]",≤ 0.005,≤ 0.005,0.01 to 0.1
"CN(C)C(=O)N1CCC(c2cc(-c3ccc(NC(=O)c4cccn(-c5ccc(F)cc5)c4=O)cc3)c3c(N)ncnn23)CC1 [Example 45, N-[4-(4-Amino-7-{1-[(dimethylamino)carbonyl]piperidin-4-yl}pyrrolo[2,1-f][1,2,4]triazin-5-yl)phenyl]-1-(4-fluorophenyl)-2-oxo-1,2-dihydropyridine-3-carboxamide]",≤ 0.005,≤ 0.005,0.01 to 0.1
"Cc1c(-c2cccnc2)c(=O)c(C(=O)Nc2ccc(-c3cc(C4CCN(C(=O)C(C)C)CC4)n4ncnc(N)c34)cc2)cn1C1CC1 [Example 147, N-(4-(4-Amino-7-(1-isobutyrylpiperidin-4-yl)pyrrolo[1,2-f][1,2,4]triazin-5-yl)phenyl)-1-cyclopropyl-6-methyl-4-oxo-5-(pyridin-3-yl)-1,4-dihydropyridine-3-carboxamide]",≤ 0.005,≤ 0.005,> 0.1
"CC(C)C(=O)N1CCC(c2cc(-c3ccc(NC(=O)c4cn(C(C)C)c(=O)n(-c5ccccn5)c4=O)cc3)c3c(N)ncnn23)CC1 [Example 83, N-(4-(4-Amino-7-(1-isobutyrylpiperidin-4-yl)pyrrolo[1,2-f][1,2,4]triazin-5-yl)phenyl)-1-isopropyl-2,4-dioxo-3-(pyridin-2-yl)-1,2,3,4-tetrahydropyrimidine-5-carboxamide]",≤ 0.005,≤ 0.005,0.01 to 0.1
"CC(C)n1cc(C(=O)Nc2ccc(-c3cc(C4CCN(C(=O)N(C)C)CC4)n4ncnc(N)c34)cc2)c(=O)n(-c2ccc(F)cc2)c1=O [Example 65, N-(4-(4-Amino-7-(1-(dimethylcarbamoyl)piperidin-4-yl)pyrrolo[1,2-f][1,2,4]triazin-5-yl)phenyl)-3-(4-fluorophenyl)-1-isopropyl-2,4-dioxo-1,2,3,4-tetrahydropyrimidine-5-carboxamide]",≤ 0.005,≤ 0.005,0.01 to 0.1
"COCCN1CCC(c2cc(-c3ccc(NC(=O)c4cccn(-c5ccccc5)c4=O)cc3F)c3c(N)ncnn23)CC1 [Example 50, N-(4-{4-Amino-7-[1-(2-methoxyethyl)piperidin-4-yl]pyrrolo[2,1-f][1,2,4]triazin-5-yl}-3-fluorophenyl)-2-oxo-1-phenyl-1,2-dihydropyridine-3-carboxamide]",≤ 0.005,≤ 0.005,0.01 to 0.1
"Cc1c(CC#N)cc(C(=O)Nc2ccc(-c3cc(C4CCN(C(=O)C(C)C)CC4)n4ncnc(N)c34)cc2)c(=O)n1-c1cncc(F)c1 [Example 102, N-(4-(4-Amino-7-(1-isobutyrylpiperidin-4-yl)pyrrolo[2,1-f][1,2,4]triazin-5-yl)phenyl)-5-(cyanomethyl)-5′-fluoro-6-methyl-2-oxo-2H-[1,3′-bipyridine]-3-carboxamide]",≤ 0.005,≤ 0.005,0.01 to 0.1
"CCc1cc(-c2ccc(NC(=O)c3cccn(Cc4ccccc4)c3=O)cc2)c2c(N)ncnn12 [Example 5, N-[4-(4-Amino-7-ethylpyrrolo[2,1-f][1,2,4]triazin-5-yl)phenyl]-1-benzyl-2-oxo-1,2-dihydropyridine-3-carboxamide]",> 0.1,> 0.1,> 0.1
"CN1CCC(c2cc(-c3ccc(NC(=O)c4cccn(-c5ccccc5)c4=O)cc3F)c3c(N)ncnn23)CC1 [Example 22, N-{4-[4-Amino-7-(1-methylpiperidin-4-yl)pyrrolo[2,1-f][1,2,4]triazin-5-yl]-3-fluorophenyl}-2-oxo-1-phenyl-1,2-dihydropyridine-3-carboxamide]",≤ 0.005,≤ 0.005,0.01 to 0.1
"CC(C)C(=O)N1CCC(c2cc(-c3ccc(NC(=O)c4cc5c(n(-c6cccnc6)c4=O)CC(C)(C)CC5=O)cc3)c3c(N)ncnn23)CC1 [Example 114, N-(4-(4-Amino-7-(1-isobutyrylpiperidin-4-yl)pyrrolo[1,2-f][1,2,4]triazin-5-yl)phenyl)-7,7-dimethyl-2,5-dioxo-1-(pyridin-3-yl)-1,2,5,6,7,8-hexahydroquinoline-3-carboxamide]",≤ 0.005,≤ 0.005,0.01 to 0.1
"CC(C)n1cc(C(=O)Nc2ccc(-c3cc(C4CCN(CC(=O)N(C)C)CC4)n4ncnc(N)c34)cc2)c(=O)n(-c2ccccc2)c1=O [Example 81, N-(4-(4-Amino-7-(1-(2-(dimethylamino)-2-oxoethyl)piperidin-4-yl)pyrrolo[1,2-f][1,2,4]triazin-5-yl)phenyl)-1-isopropyl-2,4-dioxo-3-phenyl-1,2,3,4-tetrahydropyrimidine-5-carboxamide]",≤ 0.005,≤ 0.005,0.01 to 0.1
"Cc1c(-c2cccc(C#N)c2)c(=O)c(C(=O)Nc2ccc(-c3cc(C4CCN(C(=O)C(C)C)CC4)n4ncnc(N)c34)cc2)cn1C(C)C [Example 99, N-(4-(4-Amino-7-(1-isobutyrylpiperidin-4-yl)pyrrolo[2,1-f][1,2,4]triazin-5-yl)phenyl)-5-(3-cyanophenyl)-1-isopropyl-6-methyl-4-oxo-1,4-dihydropyridine-3-carboxamide]",≤ 0.005,≤ 0.005,0.01 to 0.1
"CS(=O)(=O)N1CCC(c2cc(-c3ccc(NC(=O)c4cccn(-c5ccc(F)cc5)c4=O)cc3)c3c(N)ncnn23)CC1 [Example 41, N-(4-{4-Amino-7-[1-(methylsulfonyl)piperidin-4-yl]pyrrolo[2,1-f][1,2,4]triazin-5-yl}phenyl)-1-(4-fluorophenyl)-2-oxo-1,2-dihydropyridine-3-carboxamide]",≤ 0.005,≤ 0.005,0.01 to 0.1
